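Interpolation was linear, between the two tested concentrations surrounding the appropriate level; five concentrations were tested over 48 hours in 96-well plates. Here, GI50 denotes the concentration required for 50% inhibition of growth. TGI denotes the concentration required for complete inhibition of growth.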
Columns and labels:
Assay in all cases: DTP human tumour cell line panel, 48 h
OVCAR-3 ovarian = system: OVCAR-3 ovarian
MCF7 breast = system: MCF7 breast
EKVX NSCLC = system: EKVX NSCLC
U251 CNS = system: U251 CNS
SNB-75 CNS = system: SNB-75 CNS
HCT-15 colon = system: HCT-15 colon
SF-539 CNS = system: SF-539 CNS
CAKI-1 renal = system: CAKI-1 renal
K-562 leukemia = system: K-562 leukemia
UACC-62 melanoma = system: UACC-62 melanoma

Row | SMILES | GI50 (OVCAR-3 ovarian) [µM] | TGI (OVCAR-3 ovarian) [µM] | GI50 (MCF7 breast) [µM] | TGI (MCF7 breast) [µM] | GI50 (EKVX NSCLC) [µM] | TGI (EKVX NSCLC) [µM] | GI50 (U251 CNS) [µM] | TGI (U251 CNS) [µM] | GI50 (SNB-75 CNS) [µM] | TGI (SNB-75 CNS) [µM] | GI50 (HCT-15 colon) [µM] | TGI (HCT-15 colon) [µM] | GI50 (SF-539 CNS) [µM] | TGI (SF-539 CNS) [µM] | GI50 (CAKI-1 renal) [µM] | TGI (CAKI-1 renal) [µM] | GI50 (K-562 leukemia) [µM] | TGI (K-562 leukemia) [µM] | GI50 (UACC-62 melanoma) [µM] | TGI (UACC-62 melanoma) [µM]
1 | Cc1ccc(Cc2cnc(NC(=O)/C=C/c3cccc(C)c3)s2)cc1 | 0.0634 | 0.725 | 0.103 | > 100 | 0.403 | > 100 | 0.144 | 4.97 | 0.104 | 0.845 | 0.049 | > 96 | 0.149 | 0.9 | 0.0663 | 11 | 0.0469 | > 100 | 0.0645 | 25.3
2 | CS(=O)(=O)CCNCc1ccc(-c2ccc3ncnc(Nc4ccc(OCc5ccccc5)c(Br)c4)c3c2)o1 | 9.22 | > 25 | 7.07 | 24.6 | 0.526 | > 25 | 7.12 | > 23 | 10.1 | > 25 | 4.51 | 14.7 | 5.41 | 13.2 | 2.43 | > 25 | 7.72 | > 20.6 | 5.03 | 9.75
3 | Cc1nc2sc(C(=O)Nc3cccc4ccccc34)c(N)c2cc1C(O)c1ccccc1 (stereo not given) | 0.0317 | 0.0976 | 0.0373 | 13.4 | 0.375 | 37.5 | 0.0499 | 13.5 | 0.0241 | 11.7 | 0.0388 | 11.1 | 0.0341 | 0.29 | 0.0583 | 12 | 0.0442 | > 39.6 | 0.0747 | 12.3
4 | Cc1ccc2c(-c3ccnc(Nc4ccccc4)n3)c(-c3ccc(F)cc3)nn2n1 | 4.98 | > 22.8 | 7.44 | > 25 | 6.53 | > 25 | 9.8 | > 25 | > 8.35 | > 25 | 5.58 | > 25 | 6.99 | > 19.3 | 1.41 | > 25 | 13.5 | > 25 | 7.82 | > 25

— PubChem BioAssay (NCI)
